Molecular target: wtTaq polymerase (Thermus aquaticus, UniProt P19821)
Test: gel-based steady-state single nucleotide incorporation, […]-labelled primer
Type: biochemical
Details: 1 x Taq buffer, 60 °C

Chain of wtTaq polymerase (P19821 whole entry): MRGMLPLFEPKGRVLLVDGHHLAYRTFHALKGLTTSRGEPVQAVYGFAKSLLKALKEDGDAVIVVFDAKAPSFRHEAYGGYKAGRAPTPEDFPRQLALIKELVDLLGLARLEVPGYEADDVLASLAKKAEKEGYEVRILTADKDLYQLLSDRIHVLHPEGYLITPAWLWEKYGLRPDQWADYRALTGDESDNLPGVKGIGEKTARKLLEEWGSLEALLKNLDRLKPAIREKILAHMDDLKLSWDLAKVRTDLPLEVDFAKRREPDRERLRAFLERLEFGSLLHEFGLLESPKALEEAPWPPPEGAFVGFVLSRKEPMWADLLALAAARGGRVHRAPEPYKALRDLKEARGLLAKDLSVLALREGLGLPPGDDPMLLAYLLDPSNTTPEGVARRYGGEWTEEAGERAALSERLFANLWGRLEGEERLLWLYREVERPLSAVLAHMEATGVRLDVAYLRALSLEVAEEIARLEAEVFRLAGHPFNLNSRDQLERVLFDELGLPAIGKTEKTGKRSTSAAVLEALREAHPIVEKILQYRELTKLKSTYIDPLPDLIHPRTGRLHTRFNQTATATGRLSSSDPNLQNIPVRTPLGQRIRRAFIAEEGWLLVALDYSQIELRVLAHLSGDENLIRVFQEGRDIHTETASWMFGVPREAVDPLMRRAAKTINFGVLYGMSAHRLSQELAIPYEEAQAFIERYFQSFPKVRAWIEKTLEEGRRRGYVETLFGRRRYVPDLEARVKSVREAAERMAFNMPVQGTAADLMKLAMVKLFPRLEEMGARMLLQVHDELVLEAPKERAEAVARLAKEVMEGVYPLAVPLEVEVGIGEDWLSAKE

For `Nc1nc2c(ncn2[C@H]2C[C@H](O)[C@@H](COP(=O)(O)OP(=O)(O)OP(=O)(O)O)O2)c(=O)[nH]1` [dGTP], the Km (opposite template dC) was “incorporation of dTTP opposite dA or dGTP opposite dC”.
With `Nc1ncnc2c1ncn2[C@H]1C[C@H](O)[C@@H](COP(=O)(O)OP(=O)(O)OP(=O)(O)O)O1` [dATP] the Km (opposite template d5NI or d5NIC) was “incorporation of dNTPs opposite template d5NIC”.
With `Cc1cn([C@H]2C[C@H](O)[C@@H](COP(=O)(O)OP(=O)(O)OP(=O)(O)O)O2)c(=O)[nH]c1=O` [dTTP] the Km (opposite template dA) was “incorporation of dTTP opposite dA or dGTP opposite dC”.

Source: publication PMC2762193 (Journal of the American Chemical Society, 2009)
